Consider two compounds from patent US11352365B2, “Biased potent opioid-like agonists as improved medications to treat chronic and acute pain and methods of using the same” (THE UNITED STATES OF AMERICA, AS REPRESENTED BY THE …, priority 2018, dated 2022).

The target in test [1] is T1, MOR (Homo sapiens, UniProt P35372). Put plainly: cell-based. Also on record: expressed in transfected cells; host or cells: CHO-hMOR (membrane variant); SH-SY5Y-hMOR also named. It counts as cell-based. The method, then:
Four thousand cells per well were split into 384-well low-volume plate (VWR) with Opti-MEM (Invitrogen) supplemented with 1% FBS for 3 hours at 37° C. except SH-SY5Y-hMOR cells, which were plated for 1 hour at 37° C. Cells were then treated with drugs, […] forskolin for 30 min at room temperature.
Cells were then homogenized by a Dounce homogenizer 15 times in an ice-cold buffer [50 mM Hepes (pH 7.4)], followed by centrifugation at 500 g at 4° C. for 5 min. The supernatant was transferred to a 1.5-ml tube on ice, and the pellet was resuspended, homogenized, and centrifuged at 500 g at 4° C. for 5 min. Then, the supernatant was combined and spun at 20,000 g at 4° C. for 10 min. The membrane pellet was resuspended in an ice-cold buffer [50 mM Hepes (pH 7.4)] at concentrations of […]. Membranes were stored at −80° C. until use. For forskolin-stimulated cAMP accumulation assay, membranes were diluted in an assay buffer (50 mM Hepes, 10 mM MgCl2, 100 mM NaCl, 200 mM adenosine 5′-triphosphate, 10 mM GTP, 100 mM 3-isobutyl-1-methylxanthine, 20 mM forskolin, and 30 mM bovine serum albumin) and plated at […] of protein in each well. Membranes were treated with test compounds for 30 min at room temperature. The cAMP levels were determined as per the manufacturer's instructions (Cisbio cAMP HiRange assay).

Test [2] deals with T1, MOR. Kind of test: cell-based. The test is classed as cell-based. Also on record: host or cells: U2OS-β-arrestin2-EFC-hMOR. As to conditions: for EC50: read-out: MOR Mediated β-arrestin Recruitment. The method, then:
The PathHunter β-arrestin assay. The assay was performed according to the manufacturer's protocol (DiscoveRx) and as described previously. Briefly, 5000 U2OS-β-arrestin2-EFC-hMOR cells were plated in 384-well white plates with Opti-MEM media (Invitrogen) containing 1% FBS±pertussis toxin (100 ng/ml) overnight. The next day, cells were treated with compounds for 90 min at 37° C., followed by a 1-hour incubation of detection reagent at room temperature. Luminescence values were determined by using a Synergy HT luminometer (BioTek).

The target in a further test is T2, δ opioid receptor (Rattus norvegicus, UniProt P33533).
T2 construct: from tissue; host or cells: rat tissue (per the earlier reading)
Put plainly: Binding assay, 3H DADLE, rat tissue.

In test [3] the target is T3, μ opioid receptor (Rattus norvegicus, UniProt P33535). As to conditions: read-out: 3H DAMGO μ Ki ± SEM; rat tissue, triplicate.
A further test deals with T4, κ opioid receptor (Rattus norvegicus, UniProt P34975).
T4 construct: from tissue; host or cells: rat tissue (per the earlier reading)
Put plainly: Binding assay, 3H U69,593, rat tissue.

Test [4] addresses T5, KOR (Homo sapiens, UniProt P41145). Kind of test: KOR cAMP antagonist assay. It counts as cell-based.
For test [5], the target named is T3, μ opioid receptor. Kind of test: biochemical.
Test [6] concerns the target T5, KOR. Kind of test: KOR cAMP agonist assay. It counts as cell-based. As to conditions: Table 1; read-out: KOR cAMP Agonist Potency ± SEM.

Read-outs that look alike come from different tables or passages of the source.

T5 sequence (P41145 whole entry): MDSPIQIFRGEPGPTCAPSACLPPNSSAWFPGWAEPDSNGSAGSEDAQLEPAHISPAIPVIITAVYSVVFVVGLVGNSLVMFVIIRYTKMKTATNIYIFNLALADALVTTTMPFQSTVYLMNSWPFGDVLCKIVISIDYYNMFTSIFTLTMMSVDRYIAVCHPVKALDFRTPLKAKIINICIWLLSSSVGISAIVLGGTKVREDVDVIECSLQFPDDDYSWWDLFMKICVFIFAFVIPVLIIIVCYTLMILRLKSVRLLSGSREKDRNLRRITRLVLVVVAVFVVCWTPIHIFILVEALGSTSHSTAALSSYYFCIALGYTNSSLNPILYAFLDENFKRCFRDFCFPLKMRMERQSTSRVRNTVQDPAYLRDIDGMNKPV
T1 sequence (P35372 whole entry): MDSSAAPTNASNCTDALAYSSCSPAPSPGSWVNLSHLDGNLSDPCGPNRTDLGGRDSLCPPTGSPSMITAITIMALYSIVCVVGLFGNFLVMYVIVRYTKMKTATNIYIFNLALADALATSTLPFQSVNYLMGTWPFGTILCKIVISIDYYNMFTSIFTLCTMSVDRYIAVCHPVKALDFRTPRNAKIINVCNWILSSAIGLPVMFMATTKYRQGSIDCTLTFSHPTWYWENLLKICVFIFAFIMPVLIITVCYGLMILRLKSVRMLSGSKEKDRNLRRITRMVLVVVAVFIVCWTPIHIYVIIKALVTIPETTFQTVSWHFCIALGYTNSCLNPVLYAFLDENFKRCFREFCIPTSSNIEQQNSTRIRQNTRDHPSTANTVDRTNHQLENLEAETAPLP
T4 sequence (P34975 whole entry): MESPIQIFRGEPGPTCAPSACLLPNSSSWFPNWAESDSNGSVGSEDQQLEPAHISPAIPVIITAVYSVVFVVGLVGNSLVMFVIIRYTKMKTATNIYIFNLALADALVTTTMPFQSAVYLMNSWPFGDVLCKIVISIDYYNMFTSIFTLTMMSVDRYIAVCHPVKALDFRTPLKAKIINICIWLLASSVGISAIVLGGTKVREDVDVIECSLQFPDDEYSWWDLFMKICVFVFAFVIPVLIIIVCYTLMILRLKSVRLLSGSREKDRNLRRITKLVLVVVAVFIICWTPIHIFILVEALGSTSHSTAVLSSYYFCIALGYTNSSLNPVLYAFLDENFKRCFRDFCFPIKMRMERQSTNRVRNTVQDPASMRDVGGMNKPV
T2 sequence (P33533 whole entry): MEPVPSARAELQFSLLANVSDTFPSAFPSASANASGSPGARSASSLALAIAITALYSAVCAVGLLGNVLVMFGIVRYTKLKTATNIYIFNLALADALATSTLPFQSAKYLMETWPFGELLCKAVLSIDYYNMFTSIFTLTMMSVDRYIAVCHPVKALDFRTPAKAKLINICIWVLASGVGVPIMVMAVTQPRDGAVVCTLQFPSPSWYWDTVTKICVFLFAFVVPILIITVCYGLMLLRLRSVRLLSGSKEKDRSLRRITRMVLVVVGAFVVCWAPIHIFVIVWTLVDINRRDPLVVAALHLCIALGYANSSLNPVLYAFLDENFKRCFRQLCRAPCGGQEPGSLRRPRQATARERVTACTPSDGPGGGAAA
T3 sequence (P33535 whole entry): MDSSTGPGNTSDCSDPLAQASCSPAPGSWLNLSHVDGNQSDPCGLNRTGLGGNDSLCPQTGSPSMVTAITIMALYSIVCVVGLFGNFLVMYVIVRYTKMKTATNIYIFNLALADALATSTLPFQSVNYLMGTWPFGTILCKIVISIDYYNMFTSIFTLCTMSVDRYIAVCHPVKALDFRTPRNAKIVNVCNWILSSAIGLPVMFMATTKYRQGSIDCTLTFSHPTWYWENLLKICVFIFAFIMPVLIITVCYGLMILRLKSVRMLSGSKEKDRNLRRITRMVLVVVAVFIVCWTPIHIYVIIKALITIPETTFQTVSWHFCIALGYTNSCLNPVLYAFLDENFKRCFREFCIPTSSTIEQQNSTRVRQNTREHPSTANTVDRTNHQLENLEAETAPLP

For the compound “3-((1S,5R,9R)-9-(2-hydroxyethyl)-2-phenethyl-2-azabicyclo[3.3.1]nonan-5-yl)phenol [Compound 9]”, on MOR [1] (Table 1), the “MOR cAMP Agonist (% Efficacy)” value was “(64 ± 2%)”. Moreover, the EC50 was 4.7 ± 0.5 nM at MOR [1] (Table 1, read-out: MOR cAMP Agonist Potency ± SEM) and above 25000 nM at MOR [2] (Table 1). For the same compound, the “agonist character at the mu-receptor (in words)” value on MOR [1] (in vitro data) is on record as “less potent partial agonist”. Further, the “beta-arrestin recruitment (in words)” value on MOR [2] is “do not”. Moreover, the “3H DADLE δ activity in exploratory assay” value at δ opioid receptor (100 nM concentration) is on record as “I (<50% activity at 100 nM concentration (displaced less than half of radioligand) in exploratory assay)”. Besides, on μ opioid receptor [3], the Ki was 5.43 ± 0.09 nM. On κ opioid receptor (100 nM concentration, rat tissue), the “3H U69,593 κ activity in exploratory assay” value is given as “I (<50% activity at 100 nM concentration (displaced less than half of radioligand) in exploratory assay)”. Also, at κ opioid receptor (in vitro data), the “interaction with the kappa-receptor (in words)” value is reported as “does not interact with the kappa-receptor”.

Take `COC(=O)CC[C@H]1[C@@H]2CCC[C@@]1(c1cccc(O)c1)CCN2CCc1ccccc1` [Compound 8, Methyl 3-((1S,5R,9R)-5-(3-hydroxyphenyl)-2-phenethyl-2-azabicyclo[3.3.1]nonan-9-yl)propanoate]: the “beta-arrestin recruitment (in words)” value on MOR [2] is recorded as “do not”. For the same compound, the EC50 at MOR [2] (Table 1) was above 25000 nM; at KOR [6], above 10000 nM. The Emax on MOR [2] (read-out: MOR Mediated β-arrestin Recruitment (% Control, Emax DAMGO), Table 1) was found to be 0%. Moreover, the Ki worked out at 118 ± 7.41 nM on δ opioid receptor (triplicate, read-out: 3H DADLE δ Ki ± SEM); 0.9 ± 0.04 nM at μ opioid receptor [5]; 23.2 ± 3.11 nM on κ opioid receptor (rat tissue, triplicate, read-out: 3H U69,593 κ Ki ± SEM). Moreover, at KOR [4] (Table 1), the “KOR cAMP Antagonist Potency ± SEM” value amounted to 2.0 ± 0.4 nM. Also, the “activity at the kappa-receptor (in words)” value at KOR [4] (in vitro data) is “kappa-receptor antagonist”.
